Measured values published in US20230277533A1, “THERAPEUTIC COMBINATIONS COMPRISING UBIQUITIN-SPECIFIC-PROCESSING PROTEASE 1 (USP1) INHIBITORS AND POLY (ADP-RIBOSE) POLYMERASE (PARP) INHIBITORS” (KSQ Therapeutics, Inc., priority 2020, published 2023).
Where two headings read alike, the source gives them in different places.

What was measured:
Assay in all cases: Colony formation (CFU) assay
Assay type in all cases: cell-based
HCC1806 = details: Homo sapiens, HCC1806, breast
Description: (§1) In vitro experiments were conducted using the colony formation unit (CFU) assay on various cell lines. The CFU assay involved first establishing what cell plating density enabled the development of clearly interspersed colonies on a six-well plate when left to grow for around 14 days. […] Media was changed on day 8 containing appropriate concentrations of DMSO, USP1 inhibitor, Niraparib, or Olaparib. At or around day 14 when clearly interspersed colonies were visible in the DMSO treated wells, the cells were fixed and stained using 0.1% crystal violet in 10% ethanol for 20 minutes at room temperature. The plates were imaged then the amount of crystal violet stain in each well was quantified by extracting the crystal violet into 10% acetic acid and the absorbance measured at 565 nm.
(§2) IC50 values were calculated by fitting a two-parameter hill equation to the dose-response measurements. Non-linear-least-squares was used to find parameter values that minimize the squared error of the model fit to measured dose response. Non-linear-least-squares estimation was performed using the minpack.lm R package, version 1.2-1. Bliss synergy scores were calculated using the synergyfinder R package version 1.6.1.

SKOV3_OR1a1null = details: ovary
Description: as §1, §2

HCC1438 = details: HCC1438, lung
Description: as §1, §2

COV362 = system: COV362
Description: as §1, §2

HS739T = details: breast
Description: as §1, §2

PK8 = details: PK8, pancreas
Description: as §1, §2

CCK81 = details: CCK81, colon
Description: as §1, §2

HCT116 = details: Homo sapiens, HCT-116, HCT116, colon
Description: as §1, §2

HCC1500 = details: HCC1500, breast
Description: as §1, §2

HPAC = details: Homo sapiens
Description: as §1, §2

SNU626 = details: SNU626, nervous system
Description: as §1, §2

FADU = details: Homo sapiens, head and neck
Description: as §1, §2

HCC1569 = details: Homo sapiens; HCC1569, breast
Description: as §1, §2

RL952 = details: Homo sapiens, RL95-2; RL952, uterus
Description: as §1, §2

G292CLONEA141B1 = details: G292CLONEA141B1, bone
Description: as §1, §2

CHAGOK1 = details: Homo sapiens, ChaGo-K-1; CHAGOK1, lung
Description: as §1, §2

SUIT2 = details: SUIT-2; SUIT2, pancreas
Description: as §1, §2

OVMANA = details: ovary
Description: as §1, §2

SW948 = details: Homo sapiens; SW948, colon
Description: as §1, §2

MDAMB436 = details: Homo sapiens, MDA-MB-436, MDAMB436, breast
Description: as §1, §2

HBCx6 = details: HBCx6, breast
Description: as §1, §2

NCIH520 = details: Homo sapiens, NCI-H520, NCIH520, lung
Description: as §1, §2

PECAPJ15 = details: PECAPJ15, head and neck
Description: as §1, §2

MSTO211H = details: Homo sapiens, MSTO-211H
Description: as §1, §2

KM12 = details: Homo sapiens; KM12, colon
Description: as §1, §2

SN12C = details: Homo sapiens, kidney
Description: as §1, §2

TE11 = details: Homo sapiens, TE-11, TE11, esophagus
Description: as §1, §2

BICR56 = details: BICR56, head and neck
Description: as §1, §2

CW2 = details: Homo sapiens, CW-2, CW2, colon
Description: as §1, §2

GOTO = details: nervous system
Description: as §1, §2

HCC2108 = details: HCC2108, lung
Description: as §1, §2

KU1919 = details: Homo sapiens, KU-19-19; KU1919, bladder
Description: as §1, §2

HS870T = details: bone
Description: as §1, §2

RT112 = details: Homo sapiens, RT-112; RT112, bladder
Description: as §1, §2

UWB1289BRCA1 = details: UWB1289BRCA1, ovary
Description: as §1, §2

HUO9 = details: HUO9, bone
Description: as §1, §2

MDAMB231 = details: Homo sapiens, MDA-MB-231; MDAMB231, breast
Description: as §1, §2

SKOV3_BRCA1null = details: ovary
Description: as §1, §2

`COc1ncnc(C2CC2)c1-c1ncc2cnn(Cc3ccc(-c4nc(C(F)(F)F)cn4C)cc3)c2n1` [Formula II, 6-(4-cyclopropyl-6-methoxypyrimidin-5-yl)-1-(4-(1-methyl-4-(trifluoromethyl)-1H-imidazol-2-yl)benzyl)-1H-pyrazolo[3,4-d]pyrimidine] was tested, and the IC50 (HCC1806) was 114 nM, the IC50 (SKOV3_OR1a1null) was over 300 nM and the IC50 (HCC1438) was over 300 nM. The IC50 (COV362; COV362) was over 300 nM, the “activity as single agents” value (COV362; COV362) was “modest activity” and the IC50 (HS739T) was over 300 nM. It also gave an IC50 (PK8) of over 300 nM, an IC50 (CCK81) of over 300 nM and an IC50 (HCT116) of 110 nM. The IC50 (HCC1500) was over 300 nM, the IC50 (HPAC; pancreas) was over 300 nM and the IC50 (SNU626) was over 300 nM. The IC50 (FADU) was over 300 nM, the IC50 (HCC1569) was over 300 nM and the IC50 (RL952) was over 300 nM. The IC50 (G292CLONEA141B1) was over 300 nM, the IC50 (CHAGOK1) was over 300 nM and the IC50 (SUIT2) was over 300 nM. For the same compound, the IC50 (OVMANA) was over 300 nM, the IC50 (SW948) was over 300 nM and the IC50 (MDAMB436) was 6.46 nM. The IC50 (HBCx6) was over 300 nM, the IC50 (NCIH520) was over 300 nM and the IC50 (PECAPJ15) was over 300 nM. The IC50 (MSTO211H; lung) was over 300 nM, the IC50 (KM12) was 220 nM and the IC50 (SN12C) was 64.7 nM. The IC50 (TE11) was 134 nM, the IC50 (BICR56) was over 300 nM and the IC50 (CW2) was over 300 nM. For the same compound, the IC50 (GOTO) was over 300 nM, the IC50 (HCC2108) was over 300 nM and the IC50 (KU1919) was 25 nM. The IC50 (HS870T) was over 300 nM, the IC50 (RT112) was over 300 nM and the IC50 (UWB1289BRCA1) was 139 nM. The IC50 (HUO9) was over 300 nM, the IC50 (MDAMB231) was over 300 nM and the IC50 (SKOV3_BRCA1null) was over 300 nM.
`NC(=O)c1cccc2cn(-c3ccc([C@@H]4CCCNC4)cc3)nc12` [Niraparib, niraparib, reference compound] showed an IC50 (HCC1806) of 62.9 nM, an IC50 (SKOV3_OR1a1null) of over 300 nM and an IC50 (HCC1438) of 42.5 nM. For the same compound, the “activity as single agents” value (COV362; COV362) was “modest activity”, the IC50 (COV362; COV362, ovary, read-out: IC50) was 177 nM and the IC50 (HS739T) was over 300 nM. The IC50 (PK8) was over 300 nM, the IC50 (CCK81) was over 300 nM and the IC50 (HCT116) was over 300 nM. It also gave an IC50 (HCC1500) of 61.1 nM, an IC50 (HPAC; pancreas) of over 300 nM and an IC50 (SNU626) of over 300 nM. The IC50 (FADU) was over 300 nM, the IC50 (HCC1569) was 97.3 nM and the IC50 (RL952) was over 300 nM. It also gave an IC50 (G292CLONEA141B1) of over 300 nM, an IC50 (CHAGOK1) of over 300 nM and an IC50 (SUIT2) of over 300 nM. The IC50 (OVMANA) was over 300 nM, the IC50 (SW948) was over 300 nM and the IC50 (MDAMB436) was 4.73 nM. The IC50 (HBCx6) was 30.4 nM, the IC50 (NCIH520) was over 300 nM and the IC50 (PECAPJ15) was over 300 nM. For the same compound, the IC50 (MSTO211H; lung) was over 300 nM, the IC50 (KM12) was 106 nM and the IC50 (SN12C) was over 300 nM. It also gave an IC50 (TE11) of 176 nM, an IC50 (BICR56) of over 300 nM and an IC50 (CW2) of over 300 nM. It also gave an IC50 (GOTO) of 22.4 nM, an IC50 (HCC2108) of 95.5 nM and an IC50 (KU1919) of 181 nM. It also gave an IC50 (HS870T) of over 300 nM, an IC50 (RT112) of over 300 nM and an IC50 (UWB1289BRCA1) of 186 nM. It also gave an IC50 (HUO9) of over 300 nM, an IC50 (MDAMB231) of over 300 nM and an IC50 (SKOV3_BRCA1null) of 262 nM.
Work on `COc1ncnc(C2CC2)c1-c1ncc2cnn(Cc3ccc(-c4nc(C(F)(F)F)cn4C(C)C)cc3)c2n1` [Formula I, 6-(4-cyclopropyl-6-methoxypyrimidin-5-yl)-1-(4-(1-isopropyl-4-(trifluoromethyl)-1H-imidazol-2-yl)benzyl)-1H-pyrazolo[3,4-d]pyrimidine] yielded an IC50 (HCC1806; Table 2) of 62 nM, an IC50 (COV362; Table 2, COV362, ovary, read-out: IC50) of 203 nM and an IC50 (HCT116; Table 2) of over 316 nM. For the same compound, the IC50 (HPAC; Table 2, pancreas) was over 316 nM, the IC50 (MDAMB436; Table 2) was 4.5 nM and the IC50 (NCIH520; Table 2) was over 316 nM. The IC50 (MSTO211H; Table 2, lung) was over 316 nM, the IC50 (TE11; Table 2) was over 316 nM and the IC50 (CW2; Table 2) was 67 nM. For the same compound, the IC50 (UWB1289BRCA1; Table 2) was 113 nM.
